Here are results for 66 compounds from patent US11795169B2, “MAP4K4 inhibitors” (IMPERIAL COLLEGE INNOVATIONS LIMITED, priority 2017, dated 2023).

pIC50: −log10 of the molar value. Where a name gives a salt, the structure may show the parent alone. Some results are limits rather than exact numbers.

This assay deals with human MAP4K4 kinase domain (Homo sapiens (Human), UniProt O95819). Kind of assay: MAP4K4 kinase activity, CisBio HTRF Transcreener ADP assay. In kind it is biochemical. The conditions noted are these: ATP at Km (10 μM), 0.5 nM kinase domain, 2 h; read-out: MAP4K4. From the text: Compounds of the present invention were screened for their inhibitory activity against MAP4K4, versus selected off-target hits found with early members of this chemical series. MAP4K4 kinase activity was monitored using the CisBio HTRF Transcreener ADP assay, acompetitive immunoassay with a reproducible Z′>0.6. In the detection step, endogenous ADP and d2-labeled ADP compete for binding an anti-ADP monoclonal antibody labelled with Eu^3+ cryptate. A ratiometric fluorescent read-out is used at 665 and 620 nm. […] Assays were run in Greiner low volume plates with a final reaction volume of 10 μl. The MAP4K4 inhibition data are provided in Table 33 below for selected compounds of the present invention. The data has been categorised based on the IC50 value of the compound as “A”, “B” or “C”.
Chain of human MAP4K4 kinase domain (O95819 25-289): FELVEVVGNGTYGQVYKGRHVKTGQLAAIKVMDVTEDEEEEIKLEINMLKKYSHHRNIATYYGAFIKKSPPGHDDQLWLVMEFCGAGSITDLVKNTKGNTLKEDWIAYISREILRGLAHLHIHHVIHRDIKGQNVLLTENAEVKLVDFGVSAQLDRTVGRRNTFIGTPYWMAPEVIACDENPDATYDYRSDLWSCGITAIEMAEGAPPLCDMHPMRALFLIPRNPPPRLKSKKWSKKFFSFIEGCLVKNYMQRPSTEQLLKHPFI
(In general: TR-FRET usually uses a lanthanide donor and a delayed reading to cut background.)
As to `CC(C)(O)COc1ccc(-c2cn(-c3ccccc3)c3c(=O)[nH]cnc23)cc1` [Ex-87], the pIC50 was < 6.00.

`CN(C)Cc1cccc(-c2cn(-c3ccccc3)c3nc[nH]c(=O)c23)c1` [Ex-31]: the pIC50 was < 6.00.

With `CN(CC(O)COc1ccc(-c2cn(-c3ccccc3)c3c(=O)[nH]cnc23)cc1)C1CC1` (stereo not drawn) [Ex-90], the pIC50 is 6.00 to 7.00.

Consider `O=c1[nH]cnc2c1c(-c1ccccc1F)cn2-c1ccccc1` [Ex-66], for which the pIC50 was 6.00 to 7.00.

`NC(=O)Cc1ccc(-c2cn(-c3ccccc3)c3nc[nH]c(=O)c23)cc1` [Ex-83, 2-[4-(4-Oxo-7-phenyl-4,7-dihydro-3H-pyrrolo[2,3-d]pyrimidin-5-yl)-phenyl]-acetamide]: the pIC50 was ≥ 7.00.

In the case of `CN1CCN(CC(O)COc2ccc(-c3cn(-c4ccccc4)c4nc[nH]c(=O)c34)cc2)CC1=O` (stereo not drawn) [Ex-50], the pIC50 was ≥ 7.00.

For `C[C@@H](O)COc1ccc(-c2cn(-c3ccccc3)c3c(=O)[nH]cnc23)cc1` [Ex-92], the pIC50 was 6.00 to 7.00.

Take `Cc1cc(OCCO)ccc1-c1cn(-c2ccccc2)c2nc[nH]c(=O)c12` [Ex-57]: the pIC50 was ≥ 7.00.

On to `COc1ccc(-n2cc(-c3ccc(OCCCN(C)C)cc3)c3nc[nH]c(=O)c32)cc1` [Ex-85], for which the pIC50 is ≥ 7.00.

As for `C[C@H](O)COc1ccc(-c2cn(-c3ccccc3)c3c(=O)[nH]cnc23)cc1` [Ex-93], the pIC50 was < 6.00.

Take `O=C1CCCN1c1ccc(-c2cn(-c3cccc(F)c3)c3nc[nH]c(=O)c23)cc1` [Ex-25]: the pIC50 is ≥ 7.00.

As for `N#Cc1cccc(-c2cn(-c3ccccc3)c3c(=O)[nH]cnc23)c1` [Ex-100], the pIC50 is 6.00 to 7.00.

For the compound `COCCOc1ccc(-c2cn(-c3cccc(F)c3)c3nc[nH]c(=O)c23)cc1` [Ex-65], the pIC50 was ≥ 7.00.

As to `O=C1CCCCN1c1ccc(-c2cn(-c3ccccc3)c3nc[nH]c(=O)c23)cc1` [Ex-20], the pIC50 was 6.00 to 7.00.

`C[C@@H](O)COc1ccc(-c2cn(-c3ccccc3)c3nc[nH]c(=O)c23)cc1` [Ex-52]: the pIC50 was ≥ 7.00.

For the compound `CN(C)CC(O)COc1ccc(-c2cn(-c3ccccc3)c3nc[nH]c(=O)c23)cc1` (stereo not drawn) [Ex-46], the pIC50 is ≥ 7.00.

In the case of `COC(COc1ccc(-c2cn(-c3ccccc3)c3nc[nH]c(=O)c23)cc1)CN1CCOCC1` (stereo not drawn) [Ex-28], the pIC50 is ≥ 7.00.

Regarding `N#Cc1cccc(-c2cn(-c3ccccc3)c3nc[nH]c(=O)c23)c1` [Ex-8], the pIC50 is ≥ 7.00.

Consider `O=c1[nH]cnc2c1c(-c1ccccc1)cn2-c1ccc(Cn2ccnc2)cc1` [Ex-4], for which the pIC50 was < 6.00.

`NCC(=O)Nc1ccc(-c2cn(-c3ccccc3)c3nc[nH]c(=O)c23)cc1` [Ex-76]: the pIC50 is ≥ 7.00.

Take `O=c1[nH]cnc2c1c(-c1ccc(OCCO)cc1)cn2-c1ccccc1` [Ex-70]: the pIC50 is ≥ 7.00.

On to `CN1CCN(c2ccc(-c3cn(-c4ccccc4)c4nc[nH]c(=O)c34)cc2)C1=O` [Ex-29], for which the pIC50 was ≥ 7.00.

Take `CN1CCN(CC(O)COc2ccc(-c3cn(-c4ccccc4)c4nc[nH]c(=O)c34)cc2)CC1` (stereo not drawn) [Ex-48]: the pIC50 is ≥ 7.00.

`O=C(CO)Nc1ccc(-c2cn(-c3ccccc3)c3nc[nH]c(=O)c23)cc1` [Ex-14]: the pIC50 was ≥ 7.00.

Turning to `N#Cc1cc(-c2cn(-c3ccccc3)c3nc[nH]c(=O)c23)ccc1OCC(O)CN1CCOCC1` (stereo not drawn) [Ex-49], the pIC50 was ≥ 7.00.

As to `NCc1ccc(-c2cn(-c3ccccc3)c3nc[nH]c(=O)c23)cc1` [Ex-74, 5-(4-Aminomethyl-phenyl)-7-phenyl-3,7-dihydro-pyrrolo[2,3-d]pyrimidin-4-one], the pIC50 is 6.00 to 7.00.

Consider `CC(C)(O)CN1CCN(c2ccc(-c3cn(-c4ccccc4)c4nc[nH]c(=O)c34)cc2)C1=O` [Ex-37], for which the pIC50 was ≥ 7.00.

For the compound `CCOC(=O)Cc1ccc(-c2cn(-c3ccccc3)c3nc[nH]c(=O)c23)cc1` [Ex-10, [4-(4-oxo-7-phenyl-4,7-dihydro-3H-pyrrolo[2,3-d]pyrimidin-5-yl)-phenyl]-acetic acid ethyl ester], the pIC50 is ≥ 7.00.

`CN1CCN(CC(=O)Nc2ccc(-c3cn(-c4ccccc4)c4nc[nH]c(=O)c34)cc2)CC1` [Ex-17]: the pIC50 was ≥ 7.00.

As for `CC(C)(O)COc1ccc(-c2cn(-c3ccccc3)c3nc[nH]c(=O)c23)cc1C#N` [Ex-7, 2-(2-Hydroxy-2-methylpropoxy)-5-(4-oxo-7-phenyl-4,7-dihydro-3H-pyrrolo[2,3-d]pyrimidin-5-yl)benzonitrile], the pIC50 was ≥ 7.00.

Turning to `O=C(Nc1ccc(-c2cn(-c3ccccc3)c3nc[nH]c(=O)c23)cc1)N1CCC(O)C1` (racemic) [compound 39], the pIC50 was ≥ 7.00.

With `CN1CC(COc2ccc(-c3cn(-c4ccccc4)c4nc[nH]c(=O)c34)cc2)C1` [Ex-67], the pIC50 was 6.00 to 7.00.

Turning to `CN(C)CCN1CCN(c2ccc(-c3cn(-c4ccccc4)c4nc[nH]c(=O)c34)cc2)C1=O` [Ex-33], the pIC50 is ≥ 7.00.

As to `CN(C)CCOc1ccc(-c2cn(-c3ccccc3)c3nc[nH]c(=O)c23)cc1` [Ex-15], the pIC50 was ≥ 7.00.

As for `CC(=O)Nc1cccc(-c2cn(-c3ccccc3)c3nc[nH]c(=O)c23)c1` [Ex-12], the pIC50 is 6.00 to 7.00.

On to `CC(=O)Nc1ccc(-c2cn(-c3ccccc3)c3nc[nH]c(=O)c23)cc1` [Ex-9], for which the pIC50 was ≥ 7.00.

Regarding `O=c1[nH]cnc2c(-c3ccc(OCC(O)CN4CCCC4)cc3)cn(-c3ccccc3)c12` (stereo not drawn) [Ex-91], the pIC50 is 6.00 to 7.00.

On to `COc1cccc(-n2cc(-c3ccc(OCC(O)CN4CCOCC4)cc3)c3c(=O)[nH]cnc32)c1` (stereo not drawn) [Ex-41, 5-[4-(2-Hydroxy-3-morpholin-4-yl-propoxy)-phenyl]-7-(3-methoxy-phenyl)-3,7-dihydro-pyrrolo[2,3-d]pyrimidin-4-one], for which the pIC50 is ≥ 7.00.

As for `O=c1[nH]cnc2c(-c3ccc(OCCCN4CCOCC4)cc3)cn(-c3ccccc3)c12` [Ex-84, 7-[4-(3-Morpholin-4-yl-propoxy)-phenyl]-5-phenyl-3,5-dihydro-pyrrolo[3,2-d]pyrimidin-4-one], the pIC50 was 6.00 to 7.00.

Turning to `O=c1[nH]cnc2c1c(-c1ccc(OCCCO)cc1)cn2-c1ccccc1` [Ex-36], the pIC50 is ≥ 7.00.

On to `O=C1CCCN1c1ccc(-c2cn(-c3ccccc3)c3nc[nH]c(=O)c23)cc1` [Ex-19], for which the pIC50 was ≥ 7.00.

With `O=c1[nH]cnc2c1c(-c1ccc(OCC(O)CN3CCOCC3)cc1)cn2-c1ccccc1` (stereo not drawn) [Ex-42], the pIC50 is ≥ 7.00.

With `CC(=O)NCc1cccc(-c2cn(-c3ccccc3)c3nc[nH]c(=O)c23)c1` [Ex-71, N-[3-(4-Oxo-7-phenyl-4,7-dihydro-3H-pyrrolo[2,3-d]pyrimidin-5-yl)-benzyl]-acetamide], the pIC50 is 6.00 to 7.00.

For `NC(=O)c1cccc(-n2cc(-c3ccccc3)c3c(=O)[nH]cnc32)c1` [Ex-2], the pIC50 was ≥ 7.00.

With `O=c1[nH]cnc2c1c(-c1ccc(OCC(O)CN3CCS(=O)(=O)CC3)cc1)cn2-c1ccccc1` (stereo not drawn) [Ex-51], the pIC50 is ≥ 7.00.

`NCc1cccc(-c2cn(-c3ccccc3)c3nc[nH]c(=O)c23)c1` [Ex-75]: the pIC50 was 6.00 to 7.00.

In the case of `O=c1[nH]cnc2c(-c3ccc(OCC(O)CO)cc3)cn(-c3ccccc3)c12` (stereo not drawn) [Ex-88, 7-[4-(2,3-Dihydroxypropoxy)-phenyl]-5-phenyl-3,5-dihydropyrrolo[3,2-d]pyrimidin-4-one], the pIC50 is 6.00 to 7.00.

With `CN(C)CC(=O)Nc1cccc(-c2cn(-c3ccccc3)c3nc[nH]c(=O)c23)c1` [Ex-24], the pIC50 is < 6.00.

Consider `CN1CCC(Oc2ccc(-c3cn(-c4ccccc4)c4c(=O)[nH]cnc34)cc2)CC1` [Ex-86], for which the pIC50 is ≥ 7.00.

As for `O=c1[nH]cnc2c1c(-c1ccc(N3CCCC3)cc1)cn2-c1ccccc1` [Ex-62], the pIC50 was ≥ 7.00.

As to `O=C(CN1CCOCC1)Nc1ccc(-c2cn(-c3ccccc3)c3nc[nH]c(=O)c23)cc1` [Ex-16], the pIC50 is ≥ 7.00.

Take `O=c1[nH]cnc2c(-c3ccc(OCC(O)CN4CCOCC4)cc3)cn(-c3ccccc3)c12` (stereo not drawn) [Ex-89]: the pIC50 is 6.00 to 7.00.

Consider `NC(=O)c1ccc(-n2cc(-c3ccccc3)c3c(=O)[nH]cnc32)cc1` [Ex-6], for which the pIC50 is 6.00 to 7.00.

Regarding `CNCCC(=O)Nc1ccc(-c2cn(-c3ccccc3)c3nc[nH]c(=O)c23)cc1` [Ex-81], the pIC50 is ≥ 7.00.

Turning to `C[C@H](O)COc1ccc(-c2cn(-c3ccccc3)c3nc[nH]c(=O)c23)cc1` [Ex-53], the pIC50 was ≥ 7.00.

`O=c1[nH]cnc2c1c(-c1ccc(OCC(O)CO)cc1)cn2-c1ccccc1` (stereo not drawn) [Ex-68]: the pIC50 is ≥ 7.00.

For the compound `NCCOc1ccc(-c2cn(-c3ccccc3)c3nc[nH]c(=O)c23)cc1` [Ex-78], the pIC50 was ≥ 7.00.

With `O=c1[nH]cnc2c1c(-c1ccccc1Cl)cn2-c1ccccc1` [Ex-30], the pIC50 was 6.00 to 7.00.

As for `CN(Cc1cccc(-c2cn(-c3ccccc3)c3nc[nH]c(=O)c23)c1)C(=O)OC(C)(C)C` [Ex-32], the pIC50 was 6.00 to 7.00.

In the case of `CNCC(=O)Nc1ccc(-c2cn(-c3ccccc3)c3nc[nH]c(=O)c23)cc1` [Ex-77], the pIC50 was ≥ 7.00.

Regarding `CCOC(=O)c1ccc(-c2cn(-c3ccccc3)c3c(=O)[nH]cnc23)cc1` [Ex-98], the pIC50 was < 6.00.

In the case of `O=c1[nH]cnc2c1c(-c1c(F)cccc1F)cn2-c1ccccc1` [Ex-34], the pIC50 is 6.00 to 7.00.

In the case of `O=c1[nH]cnc2c1c(-c1ccc(OCC3(O)COC3)cc1)cn2-c1ccccc1` [Ex-69], the pIC50 was ≥ 7.00.

`O=c1[nH]cnc2c1c(-c1ccc(OCC3CNC3)cc1)cn2-c1ccccc1` [Ex-80, 5-[4-(Azetidin-3-ylmethoxy)-phenyl]-7-phenyl-3,7-dihydro-pyrrolo[2,3-d]pyrimidin-4-one-formate salt]: the pIC50 was ≥ 7.00.

Take `CNCc1cccc(-c2cn(-c3ccccc3)c3nc[nH]c(=O)c23)c1` [Ex-79]: the pIC50 was < 6.00.

`O=c1[nH]cnc2c(-c3ccccc3)cn(-c3ccccc3)c12` [Ex-97]: the pIC50 is ≥ 7.00.
